Assay results: publication PMC11938014, “Development and Application of Small Molecule–Peptide Conjugates as Cathepsin K-Specific Covalent Irreversible Inhibitors in Human Osteoclast and Lung Cancer” (JACS Au, 2025)

Key:
human osteoclasts = test: Osteoclast differentiation assay on plastic (TRAP); assay type: cell-based; conditions: osteoclasts grown on plastic, 7 days
Method: To assess osteoclast differentiation, 7.5 × 10^4 cells from PBMCs, cells preincubated with M-CSF, were cultured in 96-well plates. After 3 days, medium was replaced with differentiation medium (αMEM; M8042 sigma, 10% FBS, 5% Penstrep and L-Glu, BI) supplemented with 25 ng/mL M-CSF and 25 ng/mL RANKL (R&D systems, 390-TN) and different inhibitors: GD20 (1 or 5 μM), ODN (1 or 5 μM), or vehicle. The differentiation medium was changed after 2 and 5 days. Cells were fixed on the 7th day with 4% PFA for 10 min at room temperature, they were washed three times with PBS, and then stained using a TRAP staining kit (Sigma-Aldrich, 387A-1KT) according to the manufacturer’s protocol with additional staining of the nuclei with DAPI. Osteoclast parameters were obtained by analysis of three wells from each- treatment. […] The total osteoclast surface area was determined using ImageJ software by manually tracing individual osteoclasts perimeters.
Figure S7. Identification of fluorescent band identity. […] G els were scanned for fluorescence and then underwent immunoblotting with different cathepsin -specific antibodies . […]
Fluorescence Immunoblot s.ch. = single chain, […]
Quantification of the total number of osteoclasts, and c) osteoclast-cell area in each treatment […]
Figure S9. […] Cathepsin activity was detected by labeling intact osteoclast with GB123, a pan-cathepsin activity-based probe. […]

CTSK in human OCs = target: T1, CTSK in human OCs (Homo sapiens, UniProt P43235); test: Gel-based residual cathepsin activity in human osteoclasts (GB123) and immunoblot; assay type: cell-based
T1 construct: endogenous in cells; host or cells: primary human osteoclasts differentiated from blood monocytes with M-CSF and RANKL
T1 sequence (P43235 115-329): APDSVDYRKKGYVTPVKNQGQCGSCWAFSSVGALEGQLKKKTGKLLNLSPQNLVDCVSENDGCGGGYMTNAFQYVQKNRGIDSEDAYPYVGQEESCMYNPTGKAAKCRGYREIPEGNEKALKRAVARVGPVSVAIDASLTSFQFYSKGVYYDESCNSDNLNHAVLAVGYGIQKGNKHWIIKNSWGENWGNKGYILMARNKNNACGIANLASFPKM
Method: Figure 6 CTSK inhibition in human osteoclasts. (a) Scheme of the process of maturation of osteoclasts (OCs) derived from human monocytes in the presence of RANKL and M-CSF. (b) Representative pictures of bone resorption after incubation with human OCs treated with vehicle or inhibitors for 10–14 days. Bone resorption was observed by a toluidine blue stain. Increased staining indicates a higher number of resorption pits and greater bone resorption. (c) Quantitative analysis of pit formation in bone slices after incubation with OC treated with GD20 or ODN (1, 5 μM) relative to vehicle treated slices. Data represent mean ± standard errors, and asterisks represent p values relative to control, *p < 0.05, **p < 0.01, ***p < 0.001, n = 3 bone slices. (d) Representative images of tartrate-resistant acid phosphatase (TRAP) staining of the human osteoclasts on bone slices in the presence of vehicle or inhibitors, as indicated. […] (e) Quantification of osteoclasts number on bone slices after inhibitor treatment, detected by TRAP staining. (f) Human OCs were treated with vehicle or increasing concentrations of GD20 for 11 days (changing the medium every 2–3 days). The activity of CTSK in the cells was detected by 2 h labeling with a pan-cathepsin activity-based probe, GB123, followed by a fluorescence scan of the SDS-PAGE detecting CTSK attached to the probe; the red arrow points to the bands of CTSK (above 25 kDa). CTSK immunoblot of the same OCs is presented aside.
Cells were seeded 3 × 10^6 per 24-well plate (Primaria, Corning) in 1 mL of RPMI 1640 medium supplemented with 10% FBS and 50 μg/mL gentamicin. The next day, the medium was removed, and the adherent cells were washed with α-MEM and cultured for 14 consecutive days in α-MEM supplemented with 10% FBS, 1% penicillin, 1% streptomycin (Biological Industries), 100 ng/mL RANKL (R&D Systems), and 25 ng/mL M-CSF (R&D Systems) (for osteoclast) or with 25 ng/mL M-CSF and IL-4 (macrophage). Every 3 days, the media was changed with the required amount of M-CSF and RANKL until the giant osteoclasts appeared or with M-CSF and IL-4. […]

CC(C)C[C@H](N[C@@H](c1ccc(-c2ccc(S(C)(=O)=O)cc2)cc1)C(F)(F)F)C(=O)NCC(=O)COC(=O)[C@@H]1CCCN1C(=O)[C@H](CC(C)C)NC(=O)OCC1c2ccccc2-c2ccccc21 [GD20]
total osteoclast area (human osteoclasts): slightly decreased | CTSK activity in human OC (CTSK in human OCs; 1 μM, 11 days, GB123 labeling): blocked most of the CTSK activity | CTSB activity in human OC (CTSK in human OCs; accompanying CTSK inhibition, GB123 labeling): increase in CTSB activity | CTSK protein levels by immunoblot (CTSK in human OCs; all inhibitor concentrations): elevated CTSK protein levels
